Converted amounts (≈) assume the structure as drawn.
How the values were obtained:
Streptococcus mutans [1] = test: Antibacterial activity against Streptococcus mutans ATCC 25175 assessed as effect on planktonic growth at 0.17 ug/ml after 20 hrs relative to control; type: functional
Pseudomonas aeruginosa [2] = test: Antibacterial activity against Pseudomonas aeruginosa ATCC 27853 assessed as effect on planktonic growth at 2.73 ug/ml after 20 hrs relative to control; type: functional
Staphylococcus aureus [3] = test: Antibacterial activity against Staphylococcus aureus ATCC 25923 assessed as effect on planktonic growth at 1.37 ug/ml after 20 hrs relative to control; type: functional
Pseudomonas aeruginosa [4] = test: Antibacterial activity against Pseudomonas aeruginosa ATCC 27853 assessed as effect on planktonic growth at 0.68 ug/ml after 20 hrs relative to control; type: functional
[5] = test system: Staphylococcus epidermidis; test: Antibacterial activity against Staphylococcus epidermidis ATCC 35547 assessed as effect on planktonic growth at 87.5 ug/ml after 20 hrs relative to control; type: functional
[6] = test system: Staphylococcus epidermidis; test: Antibacterial activity against Staphylococcus epidermidis ATCC 35547 assessed as effect on planktonic growth at 0.68 ug/ml after 20 hrs relative to control; type: functional
Pseudomonas aeruginosa [7] = test: Antibacterial activity against Pseudomonas aeruginosa ATCC 27853 assessed as inhibition of biofilm formation after 20 hrs by crystal-violet staining method; type: functional, organism-based; conditions: for IC50: ATCC 27853, 20 h
Pseudomonas aeruginosa [8] = test: Antibacterial activity against Pseudomonas aeruginosa ATCC 27853 assessed as effect on planktonic growth at 87.5 ug/ml after 20 hrs relative to control; type: functional
[9] = test system: Staphylococcus epidermidis; test: Antibacterial activity against Staphylococcus epidermidis ATCC 35547 assessed as effect on planktonic growth at 5.5 ug/ml after 20 hrs relative to control; type: functional
Pseudomonas aeruginosa [10] = test: Antibacterial activity against Pseudomonas aeruginosa ATCC 27853 assessed as effect on planktonic growth at 1.37 ug/ml after 20 hrs relative to control; type: functional
[11] = test system: Staphylococcus epidermidis; test: Antibacterial activity against Staphylococcus epidermidis ATCC 35547 assessed as effect on planktonic growth at 2.73 ug/ml after 20 hrs relative to control; type: functional
Staphylococcus aureus [12] = test: Antibacterial activity against Staphylococcus aureus ATCC 25923 assessed as effect on planktonic growth at 5.5 ug/ml after 20 hrs relative to control; type: functional
[13] = test system: Staphylococcus epidermidis; test: Antibacterial activity against Staphylococcus epidermidis ATCC 35547 assessed as effect on planktonic growth at 1.37 ug/ml after 20 hrs relative to control; type: functional
Pseudomonas aeruginosa [14] = test: Antibacterial activity against Pseudomonas aeruginosa ATCC 27853 assessed as effect on planktonic growth at 21.9 ug/ml after 20 hrs relative to control; type: functional
Streptococcus mutans [15] = test: Antibacterial activity against Streptococcus mutans ATCC 25175 assessed as effect on planktonic growth at 10.9 ug/ml after 20 hrs relative to control; type: functional
Staphylococcus aureus [16] = test: Antibacterial activity against Staphylococcus aureus ATCC 25923 assessed as effect on planktonic growth at 2.73 ug/ml after 20 hrs relative to control; type: functional
Staphylococcus aureus [17] = test: Antibacterial activity against Staphylococcus aureus ATCC 25923 assessed as effect on planktonic growth at 21.9 ug/ml after 20 hrs relative to control; type: functional
Staphylococcus aureus [18] = test: Antibacterial activity against Staphylococcus aureus ATCC 25923 assessed as effect on planktonic growth at 87.5 ug/ml after 20 hrs relative to control; type: functional
Pseudomonas aeruginosa [19] = test: Antibacterial activity against Pseudomonas aeruginosa ATCC 27853 assessed as effect on planktonic growth at 10.9 ug/ml after 20 hrs relative to control; type: functional
[20] = test system: Staphylococcus epidermidis; test: Antibacterial activity against Staphylococcus epidermidis ATCC 35547 assessed as effect on planktonic growth at 21.9 ug/ml after 20 hrs relative to control; type: functional
[21] = test system: Staphylococcus epidermidis; test: Antibacterial activity against Staphylococcus epidermidis ATCC 35547 assessed as effect on planktonic growth at 0.34 ug/ml after 20 hrs relative to control; type: functional
Staphylococcus aureus [22] = test: Antibacterial activity against Staphylococcus aureus ATCC 25923 assessed as effect on planktonic growth at 0.34 ug/ml after 20 hrs relative to control; type: functional
Staphylococcus aureus [23] = test: Antibacterial activity against Staphylococcus aureus ATCC 25923 assessed as effect on planktonic growth at 0.17 ug/ml after 20 hrs relative to control; type: functional
Streptococcus mutans [24] = test: Antibacterial activity against Streptococcus mutans ATCC 25175 assessed as effect on planktonic growth at 21.9 ug/ml after 20 hrs relative to control; type: functional
Staphylococcus aureus [25] = test: Antibacterial activity against Staphylococcus aureus ATCC 25923 assessed as effect on planktonic growth at 10.9 ug/ml after 20 hrs relative to control; type: functional
[26] = test system: Staphylococcus epidermidis; test: Antibacterial activity against Staphylococcus epidermidis ATCC 35547 assessed as effect on planktonic growth at 0.17 ug/ml after 20 hrs relative to control; type: functional
Streptococcus mutans [27] = test: Antibacterial activity against Streptococcus mutans ATCC 25175 assessed as effect on planktonic growth at 0.34 ug/ml after 20 hrs relative to control; type: functional
Streptococcus mutans [28] = test: Antibacterial activity against Streptococcus mutans ATCC 25175 assessed as effect on planktonic growth at 87.5 ug/ml after 20 hrs relative to control; type: functional
Streptococcus mutans [29] = test: Antibacterial activity against Streptococcus mutans ATCC 25175 assessed as effect on planktonic growth at 43.8 ug/ml after 20 hrs relative to control; type: functional
Streptococcus mutans [30] = test: Antibacterial activity against Streptococcus mutans ATCC 25175 assessed as effect on planktonic growth at 0.68 ug/ml after 20 hrs relative to control; type: functional
[31] = test system: Staphylococcus epidermidis; test: Antibacterial activity against Staphylococcus epidermidis ATCC 35547 assessed as inhibition of biofilm formation after 20 hrs by crystal-violet staining method; type: functional, organism-based; conditions: for IC50: ATCC 35547, 20 h
Staphylococcus aureus [32] = test: Antibacterial activity against Staphylococcus aureus ATCC 25923 assessed as effect on planktonic growth at 0.68 ug/ml after 20 hrs relative to control; type: functional
[33] = test system: Staphylococcus epidermidis; test: Antibacterial activity against Staphylococcus epidermidis ATCC 35547 assessed as effect on planktonic growth at 43.8 ug/ml after 20 hrs relative to control; type: functional
Streptococcus mutans [34] = test: Antibacterial activity against Streptococcus mutans ATCC 25175 assessed as effect on planktonic growth at 1.37 ug/ml after 20 hrs relative to control; type: functional
[35] = test system: Staphylococcus epidermidis; test: Antibacterial activity against Staphylococcus epidermidis ATCC 35547 assessed as effect on planktonic growth at 10.9 ug/ml after 20 hrs relative to control; type: functional
Pseudomonas aeruginosa [36] = test: Antibacterial activity against Pseudomonas aeruginosa ATCC 27853 assessed as effect on planktonic growth at 0.34 ug/ml after 20 hrs relative to control; type: functional
Streptococcus mutans [37] = test: Antibacterial activity against Streptococcus mutans ATCC 25175 assessed as effect on planktonic growth at 2.73 ug/ml after 20 hrs relative to control; type: functional
Pseudomonas aeruginosa [38] = test: Antibacterial activity against Pseudomonas aeruginosa ATCC 27853 assessed as effect on planktonic growth at 5.5 ug/ml after 20 hrs relative to control; type: functional
Pseudomonas aeruginosa [39] = test: Antibacterial activity against Pseudomonas aeruginosa ATCC 27853 assessed as effect on planktonic growth at 43.8 ug/ml after 20 hrs relative to control; type: functional
Staphylococcus aureus [40] = test: Antibacterial activity against Staphylococcus aureus ATCC 25923 assessed as effect on planktonic growth at 43.8 ug/ml after 20 hrs relative to control; type: functional
Streptococcus mutans [41] = test: Antibacterial activity against Streptococcus mutans ATCC 25175 assessed as effect on planktonic growth at 5.5 ug/ml after 20 hrs relative to control; type: functional
Pseudomonas aeruginosa [42] = test: Antibacterial activity against Pseudomonas aeruginosa ATCC 27853 assessed as effect on planktonic growth at 0.17 ug/ml after 20 hrs relative to control; type: functional

Work on COc1ccc(Br)cc1C1=C(Br)C(=O)N(CC(C)C)/C1=C/c1ccc(Br)cc1 yielded an Activity (Streptococcus mutans [1]) of 13.9%, an Activity (Pseudomonas aeruginosa [2]) of -17.1% and an Activity (Staphylococcus aureus [3]) of 9.4%. For the same compound, the Activity (Pseudomonas aeruginosa [4]) was -5.5%, the Activity [5] was 11.4% and the Activity [6] was -2.1%. The inhibition (Pseudomonas aeruginosa [7]) was “Dose-dependent effect”, the IC50 (Pseudomonas aeruginosa [7]) was 2.5 µg/mL (≈ 4.39 µM) and the Activity (Pseudomonas aeruginosa [8]) was -8.2%. It also gave an Activity [9] of 2.7%, an Activity (Pseudomonas aeruginosa [10]) of -19.3% and an Activity [11] of -5.7%. The Activity (Staphylococcus aureus [12]) was 14.9%, the Activity [13] was -1.2% and the Activity (Pseudomonas aeruginosa [14]) was -11.7%. For the same compound, the Activity (Streptococcus mutans [15]) was 7.6%, the Activity (Staphylococcus aureus [16]) was 15.4% and the Activity (Staphylococcus aureus [17]) was 27.8%. It also gave an Activity (Staphylococcus aureus [18]) of 68.6%, an Activity (Pseudomonas aeruginosa [19]) of -15.5% and an Activity [20] of -1%. For the same compound, the Activity [21] was 0.4%, the Activity (Staphylococcus aureus [22]) was 6.3% and the Activity (Staphylococcus aureus [23]) was 2.2%. For the same compound, the Activity (Streptococcus mutans [24]) was 6%, the Activity (Staphylococcus aureus [25]) was 16.8% and the Activity [26] was -3.3%. For the same compound, the Activity (Streptococcus mutans [27]) was 12%, the Activity (Streptococcus mutans [28]) was 22.8% and the Activity (Streptococcus mutans [29]) was 9%. For the same compound, the Activity (Streptococcus mutans [30]) was 14.4%, the inhibition [31] was “Dose-dependent effect” and the IC50 [31] was over 87.5 µg/mL. For the same compound, the Activity (Staphylococcus aureus [32]) was 18.5%, the Activity [33] was 7.7% and the Activity (Streptococcus mutans [34]) was -3.3%. The Activity [35] was 1%, the Activity (Pseudomonas aeruginosa [36]) was 2.6% and the Activity (Streptococcus mutans [37]) was 12%. For the same compound, the Activity (Pseudomonas aeruginosa [38]) was -16.1%, the Activity (Pseudomonas aeruginosa [39]) was -6.2% and the Activity (Staphylococcus aureus [40]) was 36.6%. For the same compound, the Activity (Streptococcus mutans [41]) was 10.1% and the Activity (Pseudomonas aeruginosa [42]) was 0.9%.

COc1ccc(Br)cc1C1=C(Br)C(=O)N(CC(C)C)/C1=C\c1cccc(Cl)c1 showed an Activity (Streptococcus mutans [1]) of -1.2%, an Activity (Pseudomonas aeruginosa [2]) of 0.1% and an Activity (Staphylococcus aureus [3]) of -7.2%. It also gave an Activity (Pseudomonas aeruginosa [4]) of -0.3%, an Activity [5] of 72.2% and an Activity [6] of 5.6%. For the same compound, the inhibition (Pseudomonas aeruginosa [7]) was “Dose-dependent effect”, the IC50 (Pseudomonas aeruginosa [7]) was over 87.5 µg/mL and the Activity (Pseudomonas aeruginosa [8]) was 14.6%. For the same compound, the Activity [9] was 2.1%, the Activity (Pseudomonas aeruginosa [10]) was 3% and the Activity [11] was 6.8%. The Activity (Staphylococcus aureus [12]) was 0.5%, the Activity [13] was 9.8% and the Activity (Pseudomonas aeruginosa [14]) was -4.8%. It also gave an Activity (Streptococcus mutans [15]) of -19.1%, an Activity (Staphylococcus aureus [16]) of -2.7% and an Activity (Staphylococcus aureus [17]) of 5.1%. For the same compound, the Activity (Staphylococcus aureus [18]) was 18.4%, the Activity (Pseudomonas aeruginosa [19]) was -9% and the Activity [20] was 57.9%. The Activity [21] was 6.4%, the Activity (Staphylococcus aureus [22]) was -1.1% and the Activity (Staphylococcus aureus [23]) was -3.5%. It also gave an Activity (Streptococcus mutans [24]) of -10.1%, an Activity (Staphylococcus aureus [25]) of 2.4% and an Activity [26] of 2.2%. For the same compound, the Activity (Streptococcus mutans [27]) was 6.7%, the Activity (Streptococcus mutans [28]) was -4% and the Activity (Streptococcus mutans [29]) was -15.3%. The Activity (Streptococcus mutans [30]) was 11.4%, the inhibition [31] was “Dose-dependent effect” and the IC50 [31] was 31.1 µg/mL (≈ 59.2 µM). For the same compound, the Activity (Staphylococcus aureus [32]) was 1.1%, the Activity [33] was 84.7% and the Activity (Streptococcus mutans [34]) was 2.7%. It also gave an Activity [35] of 23.2%, an Activity (Pseudomonas aeruginosa [36]) of -4.4% and an Activity (Streptococcus mutans [37]) of -6.2%. It also gave an Activity (Pseudomonas aeruginosa [38]) of -3.1%, an Activity (Pseudomonas aeruginosa [39]) of -5.6% and an Activity (Staphylococcus aureus [40]) of 16.3%. It also gave an Activity (Streptococcus mutans [41]) of 1.5% and an Activity (Pseudomonas aeruginosa [42]) of 0.6%.

Reference: ChEMBL document CHEMBL3112480, “γ-Alkylidene-γ-lactones and isobutylpyrrol-2(5H)-ones analogues to rubrolides as inhibitors of biofilm formation by gram-positive and gram-negative bacteria” (Bioorg Med Chem Lett, 2014)
